Laboratory results as given in paper PMC5458547, “Discovery of first-in-class reversible dual small molecule inhibitors against G9a and DNMTs in hematological malignancies” (Nature Communications, 2017).

Tests used:
DNMT3A = biological target: T1, DNMT3A (Homo sapiens, UniProt Q9Y6K1); test: Epigenetics selectivity panel (BPS Bioscience); format: biochemical
T1 construct: purchased BPS Bioscience (contract panel)

DNMT3B = biological target: T2, DNMT3B (Homo sapiens, UniProt Q9UBC3); test: Epigenetics selectivity panel (BPS Bioscience); format: biochemical
T2 construct: purchased BPS Bioscience (contract panel)

MLL-WARD = biological target: T3, MLL-WARD (Homo sapiens, UniProt Q03164); test: Epigenetics selectivity panel (BPS Bioscience); format: biochemical
T3 construct: purchased DiscoverX KINOMEscan (kinases); BPS Bioscience (epigenetic targets)

PRMT1 = biological target: T4, PRMT1 (Homo sapiens, UniProt Q99873); test: Epigenetics selectivity panel (BPS Bioscience); format: biochemical
T4 construct: purchased BPS Bioscience (contract panel)

SETD2 = biological target: T5, SETD2 (Homo sapiens, UniProt Q9BYW2); test: Epigenetics selectivity panel (BPS Bioscience); format: biochemical
T5 construct: purchased DiscoverX KINOMEscan (kinases); BPS Bioscience (epigenetic targets)

SUV39H2 = biological target: T6, SUV39H2 (Homo sapiens, UniProt Q9H5I1); test: Epigenetics selectivity panel (BPS Bioscience); format: biochemical
T6 construct: purchased DiscoverX KINOMEscan (kinases); BPS Bioscience (epigenetic targets)

ATAD2A = biological target: T7, ATAD2A (Homo sapiens, UniProt Q6PL18); test: Epigenetics selectivity panel (BPS Bioscience); format: binding
T7 construct: purchased DiscoverX KINOMEscan (kinases); BPS Bioscience (epigenetic targets)

BAZ2B = biological target: T8, BAZ2B (Homo sapiens, UniProt Q9UIF8); test: Epigenetics selectivity panel (BPS Bioscience); format: binding
T8 construct: purchased DiscoverX KINOMEscan (kinases); BPS Bioscience (epigenetic targets)

BRD2(BD1+BD2) = biological target: T9, BRD2(BD1+BD2) (Homo sapiens, UniProt P25440); test: Epigenetics selectivity panel (BPS Bioscience); format: binding
T9 construct: purchased DiscoverX KINOMEscan (kinases); BPS Bioscience (epigenetic targets)

BRDT(BD1) = biological target: T10, BRDT(BD1) (Homo sapiens, UniProt Q58F21); test: Epigenetics selectivity panel (BPS Bioscience); format: binding
T10 construct: purchased DiscoverX KINOMEscan (kinases); BPS Bioscience (epigenetic targets)

JMJD2A = biological target: T11, JMJD2A (Homo sapiens, UniProt O75164); test: Epigenetics selectivity panel (BPS Bioscience); format: biochemical
T11 construct: purchased DiscoverX KINOMEscan (kinases); BPS Bioscience (epigenetic targets)

JMJD2D = biological target: T12, JMJD2D (Homo sapiens, UniProt Q6B0I6); test: Epigenetics selectivity panel (BPS Bioscience); format: biochemical
T12 construct: purchased DiscoverX KINOMEscan (kinases); BPS Bioscience (epigenetic targets)

JMJD2E = biological target: T13, JMJD2E (Homo sapiens, UniProt B2RXH2); test: Epigenetics selectivity panel (BPS Bioscience); format: biochemical
T13 construct: purchased DiscoverX KINOMEscan (kinases); BPS Bioscience (epigenetic targets)

Jarid1A = biological target: T14, Jarid1A (Homo sapiens, UniProt P29375); test: Epigenetics selectivity panel (BPS Bioscience); format: biochemical
T14 construct: purchased DiscoverX KINOMEscan (kinases); BPS Bioscience (epigenetic targets)

LSD1 = biological target: T15, LSD1 (Homo sapiens, UniProt O60341); test: Epigenetics selectivity panel (BPS Bioscience); format: biochemical
T15 construct: purchased DiscoverX KINOMEscan (kinases); BPS Bioscience (epigenetic targets)

Human HDAC6 = biological target: T16, Human HDAC6 (Homo sapiens, UniProt Q9UBN7); test: HDAC6 enzyme activity assay; format: biochemical
T16 construct: purchased DiscoverX KINOMEscan (kinases); BPS Bioscience (epigenetic targets)

cytochrome P450 1A2 = biological target: T17, cytochrome P450 1A2 (Homo sapiens, UniProt P05177); test: CYP inhibition in human liver microsomes; format: in vitro ADME; conditions: 10 µM
T17 construct: tissue BD Gentest; host or cells: human liver microsomes
Method: Positive control was obtained in the presence of the vehicle of the compounds. Negative control was obtained in the absence of HDAC enzyme activity. A best fit curve was fitted using GraphPad Prism 5 to derive the half maximal inhibitory concentration (IC50) from this curve. Results are the average of two […]
3A4) was evaluated in human liver microsomes at Wuxi (http://www.wuxi.com/). Test compounds (10 µM) and the corresponding substrates for each P450 isoform (20 µL) were incubated with 140 µL liver […]
reaction was terminated by adding 400 µL cold stop solution (200 ng/mL tolbutamide in ACN) and samples were centrifuged at 4000 rpm for 20 minutes. Supernatants were analyzed by LC-MS/MS (Shimadzu LC 20-AD - API 4000), using peak area ratio of analyte/internal standard. Test compounds and positive controls were tested in duplicates. The percentage of inhibition was calculated as the ratio of substrate metabolite detected in treated and non-treated wells.
This study was conducted by Equilibrium Dialysis at Wuxi (http://www.wuxi.com/). HT-Dialysis plate (Model HTD 96 b, Cat# 1006) and the dialysis membrane (molecular weight cut off 12-14 kDa, Cat# 1101) were purchased from HT Dialysis LLC (Gales Ferry, CT). Human plasma and CD-1 mouse plasma from Bioreclamation were thawed prior to experiment and the pH was adjusted at 7.4. […]
Results are the average of three replicates. […]

PAMPA permeability = format: in vitro ADME; conditions: pH 7.4
NALM-20 = test: Cell proliferation assay (MTS); format: cell-based; conditions: Homo sapiens; ALL, 48 h
MOLM-13 = test: Cell proliferation assay (MTS); format: cell-based; conditions: Homo sapiens, AML, 48 h
NOMO-1 = test: Cell proliferation assay (MTS); format: cell-based; conditions: Homo sapiens, AML, 48 h
MGH-U3 = test: Cell proliferation assay (MTS); format: cell-based; conditions: Homo sapiens; Bladder
UM-UC-7 = test: Cell proliferation assay (MTS); format: cell-based; conditions: Homo sapiens; Bladder
U87-MG = test: Cell proliferation assay (MTS); format: cell-based; conditions: Homo sapiens, U-87 MG; Glioblastoma
WM-35 = test: Cell proliferation assay (MTS); format: cell-based; conditions: Homo sapiens, WM35; Melanoma
PC3 = test: Cell proliferation assay (MTS); format: cell-based; conditions: Homo sapiens, PC-3; Prostate
CAKI-2 = test: Cell proliferation assay (MTS); format: cell-based; conditions: Homo sapiens, Renal
A549 = test: Cell proliferation assay (MTS); format: cell-based; conditions: Homo sapiens, NSCLC
H358 = test: Cell proliferation assay (MTS); format: cell-based; conditions: Homo sapiens, NCI-H358; NSCLC
H460 = test: Cell proliferation assay (MTS); format: cell-based; conditions: Homo sapiens, NCI-H460; NSCLC
H187 = test: Cell proliferation assay (MTS); format: cell-based; conditions: Homo sapiens, NCI-H187; SCLC

T4 sequence (Q99873 whole entry): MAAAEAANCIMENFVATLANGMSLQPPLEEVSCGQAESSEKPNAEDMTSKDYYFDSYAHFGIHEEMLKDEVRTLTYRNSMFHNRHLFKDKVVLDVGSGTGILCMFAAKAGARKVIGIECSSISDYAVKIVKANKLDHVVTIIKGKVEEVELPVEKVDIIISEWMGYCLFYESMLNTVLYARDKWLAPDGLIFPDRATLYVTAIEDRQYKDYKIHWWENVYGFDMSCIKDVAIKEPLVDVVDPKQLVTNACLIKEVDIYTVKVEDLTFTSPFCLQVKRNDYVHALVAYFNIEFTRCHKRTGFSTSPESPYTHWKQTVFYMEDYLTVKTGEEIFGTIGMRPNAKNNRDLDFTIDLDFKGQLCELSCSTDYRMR
T14 sequence (P29375 whole entry): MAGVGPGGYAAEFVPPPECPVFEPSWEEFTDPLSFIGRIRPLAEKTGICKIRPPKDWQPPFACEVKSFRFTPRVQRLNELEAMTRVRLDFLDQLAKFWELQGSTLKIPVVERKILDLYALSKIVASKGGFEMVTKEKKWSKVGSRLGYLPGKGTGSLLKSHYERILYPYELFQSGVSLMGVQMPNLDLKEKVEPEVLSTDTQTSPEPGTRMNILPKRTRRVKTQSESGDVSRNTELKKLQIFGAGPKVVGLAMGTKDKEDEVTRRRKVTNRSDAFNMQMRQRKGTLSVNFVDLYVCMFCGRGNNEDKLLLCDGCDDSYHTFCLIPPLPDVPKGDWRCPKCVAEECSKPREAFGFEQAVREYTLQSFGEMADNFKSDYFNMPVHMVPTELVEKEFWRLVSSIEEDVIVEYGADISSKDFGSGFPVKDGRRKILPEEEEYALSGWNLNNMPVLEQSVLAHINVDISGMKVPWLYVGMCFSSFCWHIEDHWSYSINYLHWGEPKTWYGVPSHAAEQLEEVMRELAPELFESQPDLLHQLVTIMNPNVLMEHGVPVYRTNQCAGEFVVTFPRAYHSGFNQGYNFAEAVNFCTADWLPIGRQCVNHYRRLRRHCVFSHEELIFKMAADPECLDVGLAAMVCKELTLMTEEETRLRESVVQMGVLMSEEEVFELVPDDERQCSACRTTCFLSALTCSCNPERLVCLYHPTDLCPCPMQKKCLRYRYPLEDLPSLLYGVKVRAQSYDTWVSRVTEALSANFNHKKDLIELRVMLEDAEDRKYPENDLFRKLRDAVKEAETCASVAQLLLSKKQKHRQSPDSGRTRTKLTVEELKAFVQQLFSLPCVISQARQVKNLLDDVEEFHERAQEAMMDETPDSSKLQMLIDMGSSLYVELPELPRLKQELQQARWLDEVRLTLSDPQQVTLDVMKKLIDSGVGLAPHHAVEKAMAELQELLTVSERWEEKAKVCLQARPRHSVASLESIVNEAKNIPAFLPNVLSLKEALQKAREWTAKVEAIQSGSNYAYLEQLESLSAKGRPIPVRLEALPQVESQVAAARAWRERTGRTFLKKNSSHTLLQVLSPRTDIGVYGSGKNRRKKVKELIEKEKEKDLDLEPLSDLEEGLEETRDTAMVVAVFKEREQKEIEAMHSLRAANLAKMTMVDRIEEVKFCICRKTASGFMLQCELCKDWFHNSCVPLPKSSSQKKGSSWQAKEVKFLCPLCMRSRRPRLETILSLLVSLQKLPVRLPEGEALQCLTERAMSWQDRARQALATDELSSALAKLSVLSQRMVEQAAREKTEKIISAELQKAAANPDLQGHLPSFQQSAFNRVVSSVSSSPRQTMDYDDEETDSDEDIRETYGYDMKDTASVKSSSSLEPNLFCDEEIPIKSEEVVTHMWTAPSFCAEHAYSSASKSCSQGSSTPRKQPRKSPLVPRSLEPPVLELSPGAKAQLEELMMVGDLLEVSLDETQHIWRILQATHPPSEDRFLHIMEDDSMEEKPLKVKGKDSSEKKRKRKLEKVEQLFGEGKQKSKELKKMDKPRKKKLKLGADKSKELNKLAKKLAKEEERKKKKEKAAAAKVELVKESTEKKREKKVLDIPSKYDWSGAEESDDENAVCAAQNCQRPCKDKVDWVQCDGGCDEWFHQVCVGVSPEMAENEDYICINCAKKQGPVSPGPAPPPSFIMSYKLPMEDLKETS
T9 sequence (P25440 65-459 limits assumed): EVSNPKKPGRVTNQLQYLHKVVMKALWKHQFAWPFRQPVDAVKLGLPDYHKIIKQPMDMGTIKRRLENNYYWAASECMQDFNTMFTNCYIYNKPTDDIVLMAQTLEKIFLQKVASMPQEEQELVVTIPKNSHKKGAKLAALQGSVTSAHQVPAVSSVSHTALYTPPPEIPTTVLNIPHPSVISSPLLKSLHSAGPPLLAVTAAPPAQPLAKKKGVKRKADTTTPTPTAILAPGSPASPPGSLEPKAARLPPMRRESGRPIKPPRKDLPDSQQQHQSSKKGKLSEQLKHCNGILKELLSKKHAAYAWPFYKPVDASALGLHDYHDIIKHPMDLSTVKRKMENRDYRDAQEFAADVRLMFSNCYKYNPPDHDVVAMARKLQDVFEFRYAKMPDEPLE
T16 sequence (Q9UBN7 whole entry): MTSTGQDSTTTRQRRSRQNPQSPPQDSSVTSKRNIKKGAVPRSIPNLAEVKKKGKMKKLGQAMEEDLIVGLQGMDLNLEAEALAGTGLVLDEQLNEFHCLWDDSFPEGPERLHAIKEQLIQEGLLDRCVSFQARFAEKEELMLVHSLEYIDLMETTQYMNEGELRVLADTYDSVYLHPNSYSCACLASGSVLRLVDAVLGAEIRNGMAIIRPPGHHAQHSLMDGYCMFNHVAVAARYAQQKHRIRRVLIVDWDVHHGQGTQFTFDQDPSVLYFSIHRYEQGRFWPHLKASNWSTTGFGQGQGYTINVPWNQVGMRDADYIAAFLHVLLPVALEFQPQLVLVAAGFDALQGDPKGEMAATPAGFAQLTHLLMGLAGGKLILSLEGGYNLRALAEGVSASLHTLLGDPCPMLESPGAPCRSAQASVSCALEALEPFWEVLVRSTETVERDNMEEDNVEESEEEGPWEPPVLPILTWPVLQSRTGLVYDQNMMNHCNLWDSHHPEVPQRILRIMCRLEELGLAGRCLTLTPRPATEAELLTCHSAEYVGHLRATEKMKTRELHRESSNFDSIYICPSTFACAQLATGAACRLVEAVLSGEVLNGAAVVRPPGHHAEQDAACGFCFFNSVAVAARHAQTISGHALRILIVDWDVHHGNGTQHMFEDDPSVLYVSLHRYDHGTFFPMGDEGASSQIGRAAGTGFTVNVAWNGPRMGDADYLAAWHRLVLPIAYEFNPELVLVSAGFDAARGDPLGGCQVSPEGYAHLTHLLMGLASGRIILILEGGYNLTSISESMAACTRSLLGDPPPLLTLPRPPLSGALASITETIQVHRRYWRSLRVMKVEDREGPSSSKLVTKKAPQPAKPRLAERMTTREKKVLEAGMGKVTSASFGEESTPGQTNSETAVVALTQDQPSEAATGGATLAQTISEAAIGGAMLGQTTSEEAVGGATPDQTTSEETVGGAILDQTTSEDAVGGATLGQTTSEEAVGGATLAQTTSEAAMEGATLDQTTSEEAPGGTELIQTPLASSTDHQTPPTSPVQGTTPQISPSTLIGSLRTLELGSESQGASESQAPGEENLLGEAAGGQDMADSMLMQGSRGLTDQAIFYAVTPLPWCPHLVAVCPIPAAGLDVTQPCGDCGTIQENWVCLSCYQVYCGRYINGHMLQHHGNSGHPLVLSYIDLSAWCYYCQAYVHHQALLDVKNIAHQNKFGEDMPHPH
T12 sequence (Q6B0I6 whole entry): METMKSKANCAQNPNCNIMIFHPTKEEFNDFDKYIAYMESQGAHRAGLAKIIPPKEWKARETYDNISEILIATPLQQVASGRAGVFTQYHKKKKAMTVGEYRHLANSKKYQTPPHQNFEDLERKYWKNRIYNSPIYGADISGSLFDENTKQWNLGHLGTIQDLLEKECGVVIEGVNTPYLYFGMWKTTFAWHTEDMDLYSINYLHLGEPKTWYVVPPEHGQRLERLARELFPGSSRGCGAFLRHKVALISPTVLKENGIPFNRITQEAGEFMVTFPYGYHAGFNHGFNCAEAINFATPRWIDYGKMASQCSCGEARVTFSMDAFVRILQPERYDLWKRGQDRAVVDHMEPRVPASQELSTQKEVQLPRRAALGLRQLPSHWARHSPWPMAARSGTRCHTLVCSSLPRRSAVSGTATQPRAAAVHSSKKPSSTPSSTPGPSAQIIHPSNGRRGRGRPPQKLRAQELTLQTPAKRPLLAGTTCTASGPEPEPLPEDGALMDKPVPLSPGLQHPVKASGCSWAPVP
T17 sequence (P05177 whole entry): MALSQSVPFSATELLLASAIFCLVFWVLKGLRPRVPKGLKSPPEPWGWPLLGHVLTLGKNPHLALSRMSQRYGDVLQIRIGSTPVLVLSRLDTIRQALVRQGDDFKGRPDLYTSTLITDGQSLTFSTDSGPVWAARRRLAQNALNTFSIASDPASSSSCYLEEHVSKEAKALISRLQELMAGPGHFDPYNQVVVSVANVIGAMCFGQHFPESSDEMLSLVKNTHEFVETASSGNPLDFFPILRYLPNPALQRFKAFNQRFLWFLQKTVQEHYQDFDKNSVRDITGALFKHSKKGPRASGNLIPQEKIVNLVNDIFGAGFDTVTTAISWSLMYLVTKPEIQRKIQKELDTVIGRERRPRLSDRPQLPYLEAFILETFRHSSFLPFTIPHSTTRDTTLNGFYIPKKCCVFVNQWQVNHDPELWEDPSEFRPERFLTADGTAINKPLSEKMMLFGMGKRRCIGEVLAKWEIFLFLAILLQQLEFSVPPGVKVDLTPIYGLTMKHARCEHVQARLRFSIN

Row | SMILES | IC50 (DNMT3A) | IC50 (DNMT3B) | inhibition at 10 µM (MLL-WARD) | inhibition at 10 µM (PRMT1) | inhibition at 10 µM (SETD2) | inhibition at 10 µM (SUV39H2) | inhibition at 10 µM (ATAD2A) | inhibition at 10 µM (BAZ2B) | inhibition at 10 µM (BRD2(BD1+BD2)) | inhibition at 10 µM (BRDT(BD1)) | inhibition at 10 µM (JMJD2A) | inhibition at 10 µM (JMJD2D) | inhibition at 10 µM (JMJD2E) | inhibition at 10 µM (Jarid1A) | inhibition at 10 µM (LSD1) | inhibition at 10 µM (Human HDAC6) | P450s Inhibition: 1A2 (cytochrome P450 1A2) | PAMPA (Pe) (PAMPA permeability) | GI50 (NALM-20) | GI50 (MOLM-13) | further results
1 | COc1cc2c(NC3CCN(C)CC3)cc(-c3ccc(C)o3)nc2cc1OCCCN1CCCC1 [CM-272, 6-methoxy-2-(5-methyl-2-furyl)-N-(1-methyl-4-piperidyl)-7-(3-pyrrolidin-1-ylpropoxy)quinolin-4-amine] | 85 nM | 1200 nM | 4% | 73% | 8% | 4% | 0% | 0% | 0% | 8% | 1% | 5% | 1% | 2% | 0% | 0% | < 10% | 0.16 10-6 in nm/s | > 5000 nM | 604 nM | IC50 (PRMT1; BPS): 4000 nM; GI50 (NOMO-1): 3560 nM; GI50 (MGH-U3): 456 nM; GI50 (UM-UC-7): 964 nM; GI50 (U87-MG): 294 nM; GI50 (WM-35): 854 nM; GI50 (PC3): 590 nM; GI50 (CAKI-2): 2920 nM; GI50 (A549): 937 nM; GI50 (H358): 644 nM; GI50 (H460): 1480 nM; GI50 (H187): 1640 nM
2 | COc1cc2c(NCC3CCN(C)CC3)cc(-c3ccc(C)o3)nc2cc1OCCCN1CCCC1 [CM-579, 6-methoxy-2-(5-methyl-2-furyl)-N-[(1-methyl-4-piperidyl)methyl]-7-(3-pyrrolidin-1-ylpropoxy)quinolin-4-amine] | 92 nM | 1000 nM | 2% | 43% | 0% | 0% | 0% | 0% | 0% | 0% | 30% | 25% | 8% | 27% | 24% | 0% | < 10% | 0.01 10-6 in nm/s | > 10000 nM | 1020 nM | GI50 (NOMO-1): > 10000 nM; GI50 (MGH-U3): 141 nM; GI50 (UM-UC-7): 531 nM; GI50 (U87-MG): 118 nM; GI50 (WM-35): 168 nM; GI50 (PC3): 307 nM; GI50 (CAKI-2): 304 nM; GI50 (A549): 122 nM; GI50 (H358): 197 nM; GI50 (H460): 4110 nM; GI50 (H187): 1970 nM
